This is an account of results in the Kinase Knowledgebase extract (Sharma et al. 2016).

The target in assay [1] is PIK3CD (Human) (UniProt O00329). Nature of the assay: Cell-Based Assay. The following applies: raji.
Assay [2] shares this target. Nature of the assay: Enzyme Assay.
Assay [3] concerns the target PIK3CB (Human) (UniProt P42338). As to the kind of experiment: Enzyme Assay.
Another assay deals with PIK3CG (human) (UniProt P48736). Nature of the assay: Enzyme Assay.
Assay [4] has as its target PIK3CA (human) (UniProt P42336). Nature of the assay: Enzyme Assay.
The target is the same in assay [5]. As to the kind of experiment: Cell-Based Assay. Conditions: skov-3.
Assay [6] concerns the target PIK3CB (Human) (UniProt P42338). As to the kind of experiment: Cell-Based Assay. The following applies: 786-o.

Sequence of PIK3CB (Human) (P42338 whole entry, looked up): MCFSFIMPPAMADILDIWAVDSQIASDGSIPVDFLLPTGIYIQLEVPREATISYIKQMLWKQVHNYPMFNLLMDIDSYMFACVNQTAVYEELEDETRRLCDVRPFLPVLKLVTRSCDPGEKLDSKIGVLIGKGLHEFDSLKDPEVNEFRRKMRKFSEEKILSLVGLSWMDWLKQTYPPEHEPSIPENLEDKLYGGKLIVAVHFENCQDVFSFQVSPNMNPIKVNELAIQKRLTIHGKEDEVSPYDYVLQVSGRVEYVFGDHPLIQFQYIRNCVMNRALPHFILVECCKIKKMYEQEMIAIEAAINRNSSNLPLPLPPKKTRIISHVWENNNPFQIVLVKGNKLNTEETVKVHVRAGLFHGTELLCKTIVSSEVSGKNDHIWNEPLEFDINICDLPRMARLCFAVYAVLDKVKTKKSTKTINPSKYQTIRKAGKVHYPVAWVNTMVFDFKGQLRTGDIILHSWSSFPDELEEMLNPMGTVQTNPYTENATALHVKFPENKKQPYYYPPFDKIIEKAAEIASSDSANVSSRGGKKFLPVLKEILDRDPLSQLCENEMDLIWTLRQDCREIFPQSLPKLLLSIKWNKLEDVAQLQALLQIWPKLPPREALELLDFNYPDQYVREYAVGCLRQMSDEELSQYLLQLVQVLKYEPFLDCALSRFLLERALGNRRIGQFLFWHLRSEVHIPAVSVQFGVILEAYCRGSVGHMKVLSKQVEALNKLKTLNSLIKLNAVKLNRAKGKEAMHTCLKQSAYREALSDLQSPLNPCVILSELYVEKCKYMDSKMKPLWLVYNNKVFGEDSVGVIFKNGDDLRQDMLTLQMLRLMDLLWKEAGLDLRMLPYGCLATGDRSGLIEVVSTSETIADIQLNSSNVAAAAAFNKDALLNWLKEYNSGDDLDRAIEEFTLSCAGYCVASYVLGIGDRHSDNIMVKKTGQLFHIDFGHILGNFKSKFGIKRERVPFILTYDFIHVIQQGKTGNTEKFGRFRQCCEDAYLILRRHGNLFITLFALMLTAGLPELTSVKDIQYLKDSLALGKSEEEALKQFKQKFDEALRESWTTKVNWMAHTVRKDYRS
Sequence of PIK3CG (human) (P48736 whole entry, looked up): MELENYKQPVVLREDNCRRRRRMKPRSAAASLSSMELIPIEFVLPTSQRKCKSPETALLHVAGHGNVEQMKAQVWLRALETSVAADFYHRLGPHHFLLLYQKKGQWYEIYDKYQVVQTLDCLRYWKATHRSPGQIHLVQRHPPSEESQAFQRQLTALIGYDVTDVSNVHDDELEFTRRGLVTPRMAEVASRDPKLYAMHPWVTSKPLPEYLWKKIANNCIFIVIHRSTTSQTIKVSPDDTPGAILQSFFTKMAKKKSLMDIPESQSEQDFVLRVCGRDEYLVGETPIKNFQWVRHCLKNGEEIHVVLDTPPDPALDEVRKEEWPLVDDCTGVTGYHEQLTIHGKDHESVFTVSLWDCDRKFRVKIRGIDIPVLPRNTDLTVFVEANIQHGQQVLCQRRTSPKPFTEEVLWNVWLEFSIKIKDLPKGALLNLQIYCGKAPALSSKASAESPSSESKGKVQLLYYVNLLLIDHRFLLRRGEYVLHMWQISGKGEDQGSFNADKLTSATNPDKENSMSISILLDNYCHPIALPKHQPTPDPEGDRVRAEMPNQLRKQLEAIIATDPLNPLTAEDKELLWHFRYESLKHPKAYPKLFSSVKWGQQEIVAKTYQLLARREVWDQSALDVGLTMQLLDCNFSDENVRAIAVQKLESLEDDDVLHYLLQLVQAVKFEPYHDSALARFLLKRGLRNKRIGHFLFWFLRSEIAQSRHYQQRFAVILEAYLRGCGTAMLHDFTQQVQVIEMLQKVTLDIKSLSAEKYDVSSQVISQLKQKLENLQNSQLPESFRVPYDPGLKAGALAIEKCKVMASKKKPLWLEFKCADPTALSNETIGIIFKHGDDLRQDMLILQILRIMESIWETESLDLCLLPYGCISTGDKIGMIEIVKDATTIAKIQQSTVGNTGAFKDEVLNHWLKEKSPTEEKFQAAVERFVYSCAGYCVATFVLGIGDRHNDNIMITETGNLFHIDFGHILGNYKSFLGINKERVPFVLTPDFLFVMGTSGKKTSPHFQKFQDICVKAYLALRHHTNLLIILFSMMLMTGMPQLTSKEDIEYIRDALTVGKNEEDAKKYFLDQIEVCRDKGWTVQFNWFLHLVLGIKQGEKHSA
Sequence of PIK3CA (human) (P42336 whole entry, looked up): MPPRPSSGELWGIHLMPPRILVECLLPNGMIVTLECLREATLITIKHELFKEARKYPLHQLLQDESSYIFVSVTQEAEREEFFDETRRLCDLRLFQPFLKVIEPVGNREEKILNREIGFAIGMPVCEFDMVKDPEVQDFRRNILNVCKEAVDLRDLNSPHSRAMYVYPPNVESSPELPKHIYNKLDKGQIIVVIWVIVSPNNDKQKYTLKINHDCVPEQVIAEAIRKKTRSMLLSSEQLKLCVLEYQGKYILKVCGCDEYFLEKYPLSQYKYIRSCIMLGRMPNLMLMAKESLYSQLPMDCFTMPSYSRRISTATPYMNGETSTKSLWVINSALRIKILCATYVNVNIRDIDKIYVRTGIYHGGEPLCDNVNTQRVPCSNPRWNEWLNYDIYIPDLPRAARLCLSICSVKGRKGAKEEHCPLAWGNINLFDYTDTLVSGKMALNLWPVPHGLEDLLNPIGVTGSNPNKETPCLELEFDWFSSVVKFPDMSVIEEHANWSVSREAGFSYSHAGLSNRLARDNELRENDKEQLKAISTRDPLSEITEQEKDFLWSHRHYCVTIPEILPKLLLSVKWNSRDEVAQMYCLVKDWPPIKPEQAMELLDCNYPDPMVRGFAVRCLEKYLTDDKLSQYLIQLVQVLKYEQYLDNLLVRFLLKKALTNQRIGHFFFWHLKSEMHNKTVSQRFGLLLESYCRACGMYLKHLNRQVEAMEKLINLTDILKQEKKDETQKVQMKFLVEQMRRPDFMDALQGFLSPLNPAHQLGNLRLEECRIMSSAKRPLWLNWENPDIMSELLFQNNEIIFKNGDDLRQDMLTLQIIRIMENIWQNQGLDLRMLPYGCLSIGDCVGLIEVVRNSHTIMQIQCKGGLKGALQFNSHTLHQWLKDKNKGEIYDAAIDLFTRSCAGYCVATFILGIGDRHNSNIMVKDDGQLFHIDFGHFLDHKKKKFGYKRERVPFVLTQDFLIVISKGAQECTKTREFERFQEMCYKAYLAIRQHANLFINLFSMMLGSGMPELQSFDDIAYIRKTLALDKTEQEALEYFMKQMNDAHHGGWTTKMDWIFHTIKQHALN
Sequence of PIK3CD (Human) (O00329 whole entry, looked up): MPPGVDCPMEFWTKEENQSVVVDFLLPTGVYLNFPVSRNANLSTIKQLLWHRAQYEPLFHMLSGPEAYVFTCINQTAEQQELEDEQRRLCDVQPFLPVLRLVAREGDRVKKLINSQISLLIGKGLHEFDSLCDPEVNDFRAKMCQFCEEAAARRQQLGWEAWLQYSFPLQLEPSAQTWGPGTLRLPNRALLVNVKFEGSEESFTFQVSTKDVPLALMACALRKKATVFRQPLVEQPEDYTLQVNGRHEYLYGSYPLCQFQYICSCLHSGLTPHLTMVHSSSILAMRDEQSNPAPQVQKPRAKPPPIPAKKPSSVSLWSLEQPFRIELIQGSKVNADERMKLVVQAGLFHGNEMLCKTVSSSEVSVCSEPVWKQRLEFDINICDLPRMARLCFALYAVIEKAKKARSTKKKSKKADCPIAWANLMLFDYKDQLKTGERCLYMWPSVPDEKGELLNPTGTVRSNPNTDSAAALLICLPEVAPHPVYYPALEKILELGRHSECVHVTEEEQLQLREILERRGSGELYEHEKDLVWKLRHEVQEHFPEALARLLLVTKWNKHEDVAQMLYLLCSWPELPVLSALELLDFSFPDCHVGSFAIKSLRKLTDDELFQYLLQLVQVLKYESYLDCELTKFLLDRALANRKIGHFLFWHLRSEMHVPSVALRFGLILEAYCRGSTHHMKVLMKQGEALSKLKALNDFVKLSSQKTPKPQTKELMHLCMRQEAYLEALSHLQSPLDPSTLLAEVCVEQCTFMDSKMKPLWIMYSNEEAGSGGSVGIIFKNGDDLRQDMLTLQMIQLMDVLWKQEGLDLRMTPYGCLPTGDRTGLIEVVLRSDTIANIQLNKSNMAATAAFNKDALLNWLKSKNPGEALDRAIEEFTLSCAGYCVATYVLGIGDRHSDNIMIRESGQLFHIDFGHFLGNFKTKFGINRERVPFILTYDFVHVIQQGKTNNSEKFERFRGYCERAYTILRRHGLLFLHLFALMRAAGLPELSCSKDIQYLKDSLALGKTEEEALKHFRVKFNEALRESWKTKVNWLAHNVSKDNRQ

On to `C[C@H](Nc1ncnc2scnc12)c1cc2cccc(-c3cncc(N)c3)c2c(=O)n1-c1ccccc1`, for which the IC50 at PIK3CD (Human) [1] is less than 100 nM; at PIK3CD (Human) [2] it was less than 100 nM; against PIK3CB (Human) [3], more than 10000 nM; against PIK3CG (human), 100 to 1000 nM.
For the compound `COc1ncc(-c2cccc3cc([C@H](C)Nc4ncnc5scnc45)n(-c4ccccc4)c(=O)c23)cn1`, the IC50 at PIK3CD (Human) [1], against PIK3CD (Human) [2] and on PIK3CG (human) was less than 100 nM each time.
In the case of `Cc1ncc(-c2cccc3cc([C@H](C)Nc4ncnc5scnc45)n(-c4ccon4)c(=O)c23)cn1`, the IC50 on PIK3CD (Human) [1] is less than 100 nM; against PIK3CD (Human) [2], 100 to 1000 nM; at PIK3CB (Human) [3], more than 10000 nM; on PIK3CG (human) it was more than 10000 nM; on PIK3CA (human) [4] it was more than 10000 nM.
Consider `C[C@H](Nc1ncnc2scnc12)c1cc2cccc(-c3cnn(C)c3)c2c(=O)n1-c1ccccc1`, for which the IC50 at PIK3CD (Human) [1] is less than 100 nM; against PIK3CA (human) [5] it was 100 to 1000 nM; against PIK3CD (Human) [2], less than 100 nM; on PIK3CG (human) it was less than 100 nM; on PIK3CA (human) [4], 100 to 1000 nM.
For `COc1ncc(-c2cccc3cc([C@H](C)Nc4ncnc5scnc45)n(-c4ccon4)c(=O)c23)cn1`, the IC50 against PIK3CD (Human) [1] was less than 100 nM; against PIK3CB (Human) [6], 100 to 1000 nM; at PIK3CA (human) [5], 100 to 1000 nM; on PIK3CD (Human) [2], less than 100 nM; on PIK3CG (human), 100 to 1000 nM.
For `CC(C)n1c([C@H](C)Nc2ncnc3scnc23)cc2cccc(-c3ccc(=O)n(C)c3)c2c1=O`, the half-maximal inhibitory concentration (IC50) on PIK3CD (Human) [1] was less than 100 nM; against PIK3CB (Human) [6] it was 100 to 1000 nM; at PIK3CA (human) [5] it was 100 to 1000 nM; against PIK3CD (Human) [2] it was less than 100 nM; on PIK3CG (human), 100 to 1000 nM.
For the compound `CC(C)n1c([C@H](C)Nc2ncnc3scnc23)cc2cccc(-c3ccnnc3)c2c1=O`, the IC50 was less than 100 nM at PIK3CD (Human) [1]; 100 to 1000 nM against PIK3CD (Human) [2]; more than 10000 nM on PIK3CB (Human) [3]; more than 10000 nM on PIK3CG (human); more than 10000 nM against PIK3CA (human) [4].
As to `C[C@H](Nc1ncnc2scnc12)c1cc2cccc(Cl)c2c(=O)n1-c1ccon1`, the IC50 was less than 100 nM against PIK3CD (Human) [1]; less than 100 nM on PIK3CD (Human) [2]; 100 to 1000 nM on PIK3CB (Human) [3]; 100 to 1000 nM on PIK3CG (human); more than 10000 nM against PIK3CA (human) [4].
